Results published in patent US12624044B2, “SMARCA degraders and uses thereof” (Kymera Therapeutics, Inc., priority 2019, dated 2026).

Tests used:
Format in all cases: cell-based
SMARCA4 = biological target: T1, SMARCA4 (Homo sapiens, UniProt P51532); experiment: SMARCA4 Western blot MV4-11 degradation; conditions: for Dmax: MV4-11, MV4-11 cells, read-out: SMARCA4 WB MV411 degradation 24 h: Average Dmax %; for Dmax / DC50: 24 h; for DC50 / SMARCA4 WB MV411 degradation 24 h: Average Dmax %: MV4-11 cells; for DC50: read-out: SMARCA4 WB MV411 degradation 24 h: Average external-Abs DC50
T1 construct: SMARCA2 and SMARCA4 protein degradation in MV4-11 cells; endogenous in cells; host or cells: MV4-11
T1 sequence (P51532 whole entry): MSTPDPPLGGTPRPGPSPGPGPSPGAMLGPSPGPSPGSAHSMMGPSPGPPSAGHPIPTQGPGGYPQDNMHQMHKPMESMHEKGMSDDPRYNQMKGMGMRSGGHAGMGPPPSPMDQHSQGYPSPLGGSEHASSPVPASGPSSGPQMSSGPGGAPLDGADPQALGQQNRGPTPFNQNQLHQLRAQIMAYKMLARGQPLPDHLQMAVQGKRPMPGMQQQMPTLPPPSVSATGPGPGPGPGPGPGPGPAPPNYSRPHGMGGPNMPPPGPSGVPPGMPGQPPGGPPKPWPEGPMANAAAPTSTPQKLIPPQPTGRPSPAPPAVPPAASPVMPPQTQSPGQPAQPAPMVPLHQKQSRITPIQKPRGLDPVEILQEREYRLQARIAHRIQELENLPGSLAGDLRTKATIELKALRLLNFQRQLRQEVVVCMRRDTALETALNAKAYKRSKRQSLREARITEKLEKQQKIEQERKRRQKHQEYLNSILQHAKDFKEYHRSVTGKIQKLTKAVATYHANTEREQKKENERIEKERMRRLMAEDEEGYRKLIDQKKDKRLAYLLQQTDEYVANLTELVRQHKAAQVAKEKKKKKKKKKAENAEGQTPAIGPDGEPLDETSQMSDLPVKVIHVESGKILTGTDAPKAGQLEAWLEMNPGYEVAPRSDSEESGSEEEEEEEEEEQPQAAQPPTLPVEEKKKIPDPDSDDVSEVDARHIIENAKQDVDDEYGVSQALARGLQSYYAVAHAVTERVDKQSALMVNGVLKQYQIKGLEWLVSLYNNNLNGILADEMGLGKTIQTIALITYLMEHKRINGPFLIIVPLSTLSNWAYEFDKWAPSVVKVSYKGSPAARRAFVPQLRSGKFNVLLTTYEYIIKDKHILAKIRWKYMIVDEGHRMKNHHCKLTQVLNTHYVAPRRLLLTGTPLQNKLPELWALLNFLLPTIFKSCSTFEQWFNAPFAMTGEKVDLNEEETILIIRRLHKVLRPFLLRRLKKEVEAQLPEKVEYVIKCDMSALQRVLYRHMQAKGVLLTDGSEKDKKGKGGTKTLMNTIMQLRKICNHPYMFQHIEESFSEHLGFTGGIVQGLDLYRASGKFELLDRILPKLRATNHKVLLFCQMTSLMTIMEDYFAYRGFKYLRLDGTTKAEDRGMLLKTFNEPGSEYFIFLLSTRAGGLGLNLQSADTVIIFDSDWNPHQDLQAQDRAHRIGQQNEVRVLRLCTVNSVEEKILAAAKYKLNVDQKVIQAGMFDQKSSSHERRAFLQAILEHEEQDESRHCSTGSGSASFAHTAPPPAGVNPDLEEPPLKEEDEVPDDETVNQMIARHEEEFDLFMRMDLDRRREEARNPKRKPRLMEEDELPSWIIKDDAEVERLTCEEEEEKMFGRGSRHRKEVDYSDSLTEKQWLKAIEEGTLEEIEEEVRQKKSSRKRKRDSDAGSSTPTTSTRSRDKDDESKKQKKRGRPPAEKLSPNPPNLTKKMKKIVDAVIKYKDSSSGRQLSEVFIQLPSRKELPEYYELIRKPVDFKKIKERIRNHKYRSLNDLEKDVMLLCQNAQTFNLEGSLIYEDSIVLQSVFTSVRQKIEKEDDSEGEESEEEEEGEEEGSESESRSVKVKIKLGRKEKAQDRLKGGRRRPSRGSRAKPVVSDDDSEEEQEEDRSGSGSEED
In short: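 MV4-11 cells treated with compound for 24 h, lysed in RIPA with protease/phosphatase inhibitors, and SMARCA2 and SMARCA4 (BRG1) levels assessed by Western blot with β-actin loading control and LI-COR fluorescent read-out. Maximal degradation (Dmax %) after 24 h binned into letter codes.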

SMARCA2 [1] = biological target: T2, SMARCA2 (Homo sapiens, UniProt P51531); experiment: SMARCA2 Western blot MV4-11 degradation; conditions: for Dmax: MV4-11, MV4-11 cells, read-out: SMARCA2 WB MV411 degradation 24 h: Average Dmax %; for Dmax / DC50: 24 h; for DC50 / SMARCA2 WB MV411 degradation 24 h: Average Dmax %: MV4-11 cells; for DC50: read-out: SMARCA2 WB MV411 degradation 24 h: Average external-Abs DC50
T2 sequence (P51531 whole entry): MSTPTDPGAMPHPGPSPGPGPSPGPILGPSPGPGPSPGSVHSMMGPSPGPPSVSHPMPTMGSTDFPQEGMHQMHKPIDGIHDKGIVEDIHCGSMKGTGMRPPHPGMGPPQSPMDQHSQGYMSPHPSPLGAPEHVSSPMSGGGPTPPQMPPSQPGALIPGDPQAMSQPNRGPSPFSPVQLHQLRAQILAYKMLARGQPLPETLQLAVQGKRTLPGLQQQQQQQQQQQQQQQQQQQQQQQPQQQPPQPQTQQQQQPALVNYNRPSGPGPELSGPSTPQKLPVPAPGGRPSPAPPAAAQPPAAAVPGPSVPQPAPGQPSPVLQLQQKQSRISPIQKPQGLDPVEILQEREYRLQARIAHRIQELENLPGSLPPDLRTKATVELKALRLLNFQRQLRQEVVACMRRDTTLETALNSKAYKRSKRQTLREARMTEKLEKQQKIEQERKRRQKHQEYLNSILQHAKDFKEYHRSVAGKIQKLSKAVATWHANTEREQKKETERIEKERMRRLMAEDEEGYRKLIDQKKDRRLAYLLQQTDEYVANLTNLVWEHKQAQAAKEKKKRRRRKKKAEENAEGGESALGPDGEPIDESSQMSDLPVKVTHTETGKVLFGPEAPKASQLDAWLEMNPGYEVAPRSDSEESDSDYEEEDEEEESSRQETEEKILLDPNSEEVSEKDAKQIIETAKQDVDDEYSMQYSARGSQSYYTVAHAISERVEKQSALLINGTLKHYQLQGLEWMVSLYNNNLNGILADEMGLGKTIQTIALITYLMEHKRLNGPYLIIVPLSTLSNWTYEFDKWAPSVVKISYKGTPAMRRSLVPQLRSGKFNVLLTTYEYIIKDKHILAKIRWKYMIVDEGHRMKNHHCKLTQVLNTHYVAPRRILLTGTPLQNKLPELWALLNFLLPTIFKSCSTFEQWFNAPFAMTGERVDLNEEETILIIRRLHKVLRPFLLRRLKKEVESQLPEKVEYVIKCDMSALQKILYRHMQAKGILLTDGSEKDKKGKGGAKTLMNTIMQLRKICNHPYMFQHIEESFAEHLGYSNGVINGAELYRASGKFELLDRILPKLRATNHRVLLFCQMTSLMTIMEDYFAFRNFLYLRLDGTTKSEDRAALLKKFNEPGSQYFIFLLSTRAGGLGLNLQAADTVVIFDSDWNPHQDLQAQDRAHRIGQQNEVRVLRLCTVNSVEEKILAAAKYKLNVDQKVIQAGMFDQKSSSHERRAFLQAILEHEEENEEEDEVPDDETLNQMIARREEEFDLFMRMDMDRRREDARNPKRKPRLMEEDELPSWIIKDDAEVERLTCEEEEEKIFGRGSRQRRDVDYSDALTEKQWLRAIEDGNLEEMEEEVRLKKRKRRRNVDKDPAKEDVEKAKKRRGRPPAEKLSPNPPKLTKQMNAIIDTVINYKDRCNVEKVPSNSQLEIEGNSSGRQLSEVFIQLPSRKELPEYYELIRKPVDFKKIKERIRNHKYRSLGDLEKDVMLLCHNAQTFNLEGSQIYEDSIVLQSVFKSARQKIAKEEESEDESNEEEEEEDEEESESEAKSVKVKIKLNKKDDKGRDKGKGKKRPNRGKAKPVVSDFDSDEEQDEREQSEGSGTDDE
Procedure: Cells were seeded into 6-well plates (MV4-11: 4×10^6 cells/well/1 ml) and 1 ml of 2× compound solution was added into the well to make the final concentration and the plates were mixed well and incubated for 24 hours (No cytotoxicity was observed). The cell were collected with media and spun at 3000 rpm for 5 minutes. The supernatant was aspirated and the well and the cells were washed with cold PBS once and combined for centrifugation again; the supernatant aspirated again. 200 ul pre-chilled RIPAlysis buffer (Boston BioProducts BP-115D) with protease/phosphatase inhibitor (Roche 05892791001/Roche 04906837001) was directly added into the tube to lyze the cells for 20 minutes on ice. The cell lysate were collected into EP tubes and spun at 13000 rpm for 20 minutes and 72 ul supernatant was transferred to a fresh EP tube containing 18 ul of 5× loading buffer (Beyotime Bio P0015) to make the loading samples. The samples were heated to 100° C. for 10 minutes and cooled to RT and microcentrifuged. 20 ul of samples were loaded onto SDS-PAGE gel (Novex, WG1402BOX) and the gel was run at 80 V for 20 minutes and 120 V for 1.5 hours. The samples were electrotransfer to a NC membrane using wet-transfer method with 250 mA for 2.5 hours. The membrane was blocked with LICOR blocking buffer (LI-COR, 927-50000) for 1 hour. The membrane was washed three times with TBST (CST #9997S), 5 minutes each. Incubation was performed with primary antibody prepared in blocking buffer with 0.1% Tween-20 (Solarbio, P8220) at 4° C. overnight (Anti-SMARCA2/BRM antibody (ab15597) 1:500; Anti-BRG1 antibody [EPR3912] (ab108318) 1:1000; Rabbit anti-Baf180 antibody [EPR15860] (Abcam, ab196022) 1:1000; mouse anti-beta-Actin (8H10D10) (CST #3700) 1:10000). The membrane was washed three times with TBST, 5 minutes each. Incubation with secondary antibody was performed for 1 hour at RT (anti-rabbit IgG (Licor, 926-32211) 1:5000; anti-mouse IgG (LI-COR, 926-68070) 1:5000). The membrane was washed three times with TBST, 5 minutes each and lastly the LiCOR was read.
The letter codes for the percentage of SMARCA degradation after 24 hours (Dmax %) include: A (>90% degradation), B (>70-90% degradation), C (50-70% degradation), and D (<50% degradation).

SMARCA2 [2] = biological target: T2, SMARCA2; experiment: MSD SMARCA2 degradation in A549 cell line; conditions: for Dmax: A549, A549 cells; for Dmax / DC50: 24 h; for DC50 / SMARCA2 MSD A549 degradation 24 h: Average Dmax %: A549 cells; for DC50: read-out: SMARCA2 MSD A549 degradation 24 h: Average external-Abs DC50
In short: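 A549 cells treated 24 h with compound at final 0.152-1000 nM (3-fold series, DMSO control). Lysates analyzed by MSD immunoassay using anti-SMARCA2/BRM detection and SULFO-TAG secondary antibodies; maximal degradation (Dmax %) reported as letter bins.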

| Structure (SMILES) | Dmax (SMARCA4) [%] | DC50 (SMARCA4) [nM] | Dmax (SMARCA2 [1]) [%] | DC50 (SMARCA2 [1]) [nM] | Dmax (SMARCA2 [2]) [%] | DC50 (SMARCA2 [2]) [nM] | SMARCA4 WB MV411 degradation 24 h: Average Dmax % (SMARCA4) | SMARCA2 WB MV411 degradation 24 h: Average Dmax % (SMARCA2 [1]) | SMARCA2 MSD A549 degradation 24 h: Average Dmax % (SMARCA2 [2]) |
| --- | --- | --- | --- | --- | --- | --- | --- | --- | --- |
| CC(=O)O[C@@H]1C[C@@H](C(=O)NCc2ccc(-c3scnc3C)cc2)N(C(=O)[C@@H](NC(=O)[C@H]2CC[C@H](c3cnc(N4C5CCC4CN(c4cc(-c6ccccc6O)nnc4N)C5)nc3)CC2)C(C)(C)C)C1 [I-408] | > 90 | < 100 | > 90 | < 100 | > 90 | < 100 | – | – | – |
| Cc1ncsc1-c1ccc(CNC(=O)[C@@H]2C[C@@H](OC(=O)[C@H](C)N)CN2C(=O)[C@@H](NC(=O)[C@H]2CC[C@H](c3cnc(N4C5CCC4CN(c4cc(-c6ccccc6O)nnc4N)C5)nc3)CC2)C(C)(C)C)cc1 [I-409] | > 90 | < 100 | > 90 | < 100 | > 90 | < 100 | – | – | – |
| Cc1ncsc1-c1ccc(CNC(=O)[C@@H]2C[C@@H](O)CN2C(=O)[C@@H](NC(=O)C2CCC(c3cnc(N4C5CCC4CN(c4cc(-c6ccccc6O)nnc4N)C5)nc3)CC2C)C(C)(C)C)cc1 (some centres unmarked) [I-411] | > 90 | < 100 | > 90 | < 100 | 50 to 70 | 501 to 1000 | – | – | – |
| Cc1ncsc1-c1ccc(CNC(=O)[C@@H]2C[C@@H](O)CN2C(=O)[C@@H](NC(=O)[C@H]2CC[C@H](c3cnc(N4C5CCC4CN(c4cc(-c6ccccc6O)nnc4N)C5)nc3C)CC2)C(C)(C)C)cc1 [I-412] | > 90 | < 100 | > 90 | < 100 | > 90 | < 100 | – | – | – |
| Cc1ncsc1-c1ccc(CNC(=O)[C@@H]2C[C@@H](O)CN2C(=O)[C@@H](NC(=O)[C@H]2CC3(C2)C[C@H](c2cnc(N4C5CCC4CN(c4cc(-c6ccccc6O)nnc4N)C5)nc2)C3)C(C)(C)C)c(C(F)(F)F)c1 (some centres unmarked) [I-419] | 70 to 90 | 100 to 500 | > 90 | < 100 | > 90 | 100 to 500 | – | – | – |
| Cc1ncsc1-c1ccc(CNC(=O)[C@@H]2C[C@@H](O)CN2C(=O)[C@@H](NC(=O)[C@H]2C[C@]3(C2)C[C@H](c2cnc(N4C5CCC4CN(c4cc(-c6ccccc6O)nnc4N)C5)nc2)C3)C(C)(C)C)c(C(F)(F)F)c1 (some centres unmarked) [I-420] | – | 100 to 500 | – | < 100 | – | 100 to 500 | D (D (<50% degradation)) | B (B (>70-90% degradation)) | A (A (>90% degradation)) |
| Cc1ncsc1-c1ccc(CNC(=O)[C@@H]2C[C@@H](O)CN2C(=O)[C@@H](NC(=O)[C@H]2CC3(C2)C[C@H](N2CCC(c4cnc(N5C6CCC5CN(c5cc(-c7ccccc7O)nnc5N)C6)nc4)CC2)C3)C(C)(C)C)cc1 (some centres unmarked) [I-423] | 50 to 70 | 100 to 500 | > 90 | < 100 | > 90 | < 100 | – | – | – |
| Cc1ncsc1-c1ccc(CNC(=O)[C@@H]2C[C@@H](O)CN2C(=O)[C@@H](NC(=O)[C@H]2CC3(C2)C[C@H](N2CCC(c4cnc(N5C6CCC5CN(c5cc(-c7ccccc7O)nnc5N)C6)nc4)CC2)C3)C(C)(C)C)cc1 (some centres unmarked) [I-424] | – | > 1000 | – | < 100 | – | < 100 | D (D (<50% degradation)) | A (A (>90% degradation)) | A (A (>90% degradation)) |
| Cc1ncsc1-c1ccc(CNC(=O)[C@@H]2C[C@@H](O)CN2C(=O)[C@@H](NC(=O)C23CCC(CN4CCC(c5cnc(N6C7CCC6CN(c6cc(-c8ccccc8O)nnc6N)C7)nc5)CC4)(CC2)CC3)C(C)(C)C)cc1 [I-425] | 70 to 90 | 100 to 500 | > 90 | < 100 | > 90 | < 100 | – | – | – |
| Cc1ncsc1-c1ccc(CNC(=O)[C@@H]2C[C@@H](O)CN2C(=O)[C@@H](NC(=O)[C@H]2C[C@]3(C[C@H](CN4CCC(c5cnc(N6C7CCC6CN(c6cc(-c8ccccc8O)nnc6N)C7)nc5)CC4)C3)C2)C(C)(C)C)cc1 (some centres unmarked) [I-427] | < 50 | 100 to 500 | > 90 | < 100 | – | < 100 | – | – | – |
